# According to ChEMBL document CHEMBL1201862, “PubChem BioAssay data set” (2004):
#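 48-hour exposure; five concentrations; linearly interpolated endpoints. The concentration for 50% growth inhibition is given as GI50.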 The source made the active and inactive calls. No stated cut-off is given here; in the data, active = GI50 up to about 1.1 µM and inactive = higher.
# Assays:
# Assay in all cases: growth of human tumour cells (NCI), 48 h
# [1] = test system: HCT-116
# [2] = test system: EKVX
# [3] = test system: NCI-H226
# [4] = test system: HOP-92
# [5] = test system: T47D
# [6] = test system: SK-OV-3
# [7] = test system: SW-620
# [8] = test system: M14
# [9] = test system: COLO 205
# [10] = test system: 786-0
# [11] = test system: LOX IMVI
# [12] = test system: RPMI-8226
# [13] = test system: UACC-257
# [14] = test system: SR
# [15] = test system: SK-MEL-28
# [16] = test system: CAKI-1
# [17] = test system: SK-MEL-5
# [18] = test system: OVCAR-8
# [19] = test system: ACHN
# [20] = test system: K562
# [21] = test system: HT-29
# [22] = test system: SN12C
# [23] = test system: CCRF-CEM
# [24] = test system: HL-60
# [25] = test system: U-251
# [26] = test system: BT-549
# [27] = test system: MDA-N
# [28] = test system: DU-145
# [29] = test system: SK-MEL-2
# [30] = test system: MOLT-4
# [31] = test system: IGROV-1
# [32] = test system: PC-3
# [33] = test system: NCI-H522
# [34] = test system: OVCAR-5
# [35] = test system: NCI/ADR-RES
# [36] = test system: RXF 393
# [37] = test system: Malme-3M
# [38] = test system: MCF7
# [39] = test system: UACC-62
# [40] = test system: NCI-H23
# [41] = test system: TK-10
# [42] = test system: SF-295
# [43] = test system: UO-31
# [44] = test system: OVCAR-4
# [45] = test system: SF-539
# [46] = test system: MDA-MB-435
# [47] = test system: HCC 2998
# [48] = test system: OVCAR-3
# [49] = test system: KM12
# [50] = test system: HCT-15
# [51] = test system: SF-268
# [52] = test system: SNB-19
# [53] = test system: HOP-62
# [54] = test system: A549
# [55] = test system: NCI-H460
# [56] = test system: Hs-578T
# [57] = test system: SNB-75
# [58] = test system: MDA-MB-231
compound,measurement,setting,value
C#Cc1cc(-c2nc3ccccc3s2)ccc1N,GI50,[1],16.6 µM (inactive)
same,GI50,[2],19.1 µM (inactive)
same,GI50,[3],12.4 µM (inactive)
same,GI50,[4],11 µM (inactive)
same,GI50,[5],14.5 µM (inactive)
same,GI50,[6],26.4 µM (inactive)
same,GI50,[7],34.6 µM (inactive)
same,GI50,[8],17.6 µM (inactive)
same,GI50,[9],17.5 µM (inactive)
same,GI50,[10],34.4 µM (inactive)
same,GI50,[11],13.7 µM (inactive)
same,GI50,[12],25.4 µM (inactive)
same,GI50,[13],12.6 µM (inactive)
same,GI50,[14],25.1 µM (inactive)
same,GI50,[15],16.1 µM (inactive)
same,GI50,[16],20.5 µM (inactive)
same,GI50,[17],26.6 µM (inactive)
same,GI50,[18],29.2 µM (inactive)
same,GI50,[19],24 µM (inactive)
same,GI50,[20],25.3 µM (inactive)
same,GI50,[21],18 µM (inactive)
same,GI50,[22],22 µM (inactive)
same,GI50,[23],23.3 µM (inactive)
same,GI50,[24],24.7 µM (inactive)
same,GI50,[25],20.6 µM (inactive)
same,GI50,[26],20 µM (inactive)
same,GI50,[27],33 µM (inactive)
same,GI50,[28],16.7 µM (inactive)
same,GI50,[29],16.7 µM (inactive)
same,GI50,[30],22.6 µM (inactive)
same,GI50,[31],0.615 µM (active)
same,GI50,[32],24.9 µM (inactive)
same,GI50,[33],15.8 µM (inactive)
same,GI50,[34],32 µM (inactive)
same,GI50,[35],27.7 µM (inactive)
same,GI50,[36],25.8 µM (inactive)
same,GI50,[37],24.4 µM (inactive)
same,GI50,[38],< 0.01 µM (active)
same,GI50,[39],17.5 µM (inactive)
same,GI50,[40],16.5 µM (inactive)
same,GI50,[41],15.1 µM (inactive)
same,GI50,[42],20 µM (inactive)
same,GI50,[43],14.2 µM (inactive)
same,GI50,[44],17.6 µM (inactive)
same,GI50,[45],32.2 µM (inactive)
same,GI50,[46],19.5 µM (inactive)
same,GI50,[47],10.3 µM (inactive)
same,GI50,[48],16.8 µM (inactive)
same,GI50,[49],18.9 µM (inactive)
same,GI50,[50],17.5 µM
same,GI50,[51],25.8 µM (inactive)
same,GI50,[52],20 µM (inactive)
same,GI50,[53],37.3 µM (inactive)
same,GI50,[54],16.3 µM (inactive)
same,GI50,[55],16.5 µM (inactive)
CN(C(=O)C1(C(=O)C=[N+]=[N-])CC1)c1ccccc1,GI50,[1],> 100 µM (inactive)
same,GI50,[2],> 100 µM (inactive)
same,GI50,[3],> 100 µM (inactive)
same,GI50,[56],> 100 µM (inactive)
same,GI50,[7],> 100 µM (inactive)
same,GI50,[8],> 100 µM (inactive)
same,GI50,[9],> 100 µM (inactive)
same,GI50,[10],> 100 µM (inactive)
same,GI50,[11],> 100 µM (inactive)
same,GI50,[12],> 100 µM (inactive)
same,GI50,[13],> 100 µM (inactive)
same,GI50,[14],> 100 µM (inactive)
same,GI50,[15],> 100 µM (inactive)
same,GI50,[17],> 100 µM (inactive)
same,GI50,[18],> 100 µM (inactive)
same,GI50,[19],> 100 µM (inactive)
same,GI50,[20],> 100 µM (inactive)
same,GI50,[21],> 100 µM (inactive)
same,GI50,[22],> 100 µM (inactive)
same,GI50,[23],> 100 µM (inactive)
same,GI50,[24],> 100 µM (inactive)
same,GI50,[25],> 100 µM (inactive)
same,GI50,[26],> 100 µM (inactive)
same,GI50,[27],> 100 µM (inactive)
same,GI50,[57],> 100 µM (inactive)
same,GI50,[58],> 100 µM (inactive)
same,GI50,[28],> 100 µM (inactive)
same,GI50,[29],> 100 µM (inactive)
same,GI50,[30],> 100 µM (inactive)
same,GI50,[31],> 100 µM (inactive)
same,GI50,[32],> 100 µM (inactive)
same,GI50,[33],83.6 µM (inactive)
same,GI50,[34],> 100 µM (inactive)
same,GI50,[35],> 100 µM (inactive)
same,GI50,[36],> 100 µM (inactive)
same,GI50,[37],> 100 µM (inactive)
same,GI50,[38],> 100 µM (inactive)
same,GI50,[39],> 100 µM (inactive)
same,GI50,[40],> 100 µM (inactive)
same,GI50,[41],> 100 µM (inactive)
same,GI50,[42],> 100 µM (inactive)
same,GI50,[43],> 100 µM (inactive)
same,GI50,[45],> 100 µM (inactive)
same,GI50,[46],> 100 µM (inactive)
same,GI50,[47],> 100 µM (inactive)
same,GI50,[48],> 100 µM (inactive)
same,GI50,[49],> 100 µM (inactive)
same,GI50,[50],> 100 µM
same,GI50,[51],> 100 µM (inactive)
same,GI50,[52],> 100 µM (inactive)
same,GI50,[53],> 100 µM (inactive)
same,GI50,[54],> 100 µM (inactive)
same,GI50,[55],> 100 µM (inactive)
O=C(O)CNC(=O)C(CSC(=O)OCC1c2ccccc2-c2ccccc21)NC(=O)CCC(NC(=O)OCC1c2ccccc2-c2ccccc21)C(=O)O (stereo not given),GI50,[1],18 µM (inactive)
same,GI50,[2],17.8 µM (inactive)
same,GI50,[3],38.8 µM (inactive)
same,GI50,[4],21.7 µM (inactive)
same,GI50,[56],68.1 µM (inactive)
same,GI50,[6],> 100 µM (inactive)
same,GI50,[7],19 µM (inactive)
same,GI50,[8],> 100 µM (inactive)
same,GI50,[9],16.5 µM (inactive)
same,GI50,[10],3.05 µM (inactive)
same,GI50,[11],0.0259 µM (active)
same,GI50,[12],21.5 µM (inactive)
same,GI50,[13],> 100 µM (inactive)
same,GI50,[14],3.49 µM (inactive)
same,GI50,[15],> 100 µM (inactive)
same,GI50,[16],4.57 µM (inactive)
same,GI50,[17],63.4 µM (inactive)
same,GI50,[18],16.4 µM (inactive)
same,GI50,[19],18.4 µM (inactive)
same,GI50,[20],17.1 µM (inactive)
same,GI50,[22],16.5 µM (inactive)
same,GI50,[23],20.2 µM (inactive)
same,GI50,[24],28.8 µM (inactive)
same,GI50,[26],> 100 µM (inactive)
same,GI50,[27],28.1 µM (inactive)
same,GI50,[58],17.9 µM (inactive)
same,GI50,[28],15.3 µM (inactive)
same,GI50,[29],> 100 µM (inactive)
same,GI50,[30],20.1 µM (inactive)
same,GI50,[31],13.1 µM (inactive)
same,GI50,[32],15.5 µM (inactive)
same,GI50,[33],1.57 µM (inactive)
same,GI50,[34],> 100 µM (inactive)
same,GI50,[35],17.5 µM (inactive)
same,GI50,[36],18.7 µM (inactive)
same,GI50,[37],20.7 µM (inactive)
same,GI50,[38],> 100 µM (inactive)
same,GI50,[40],27 µM (inactive)
same,GI50,[41],22.2 µM (inactive)
same,GI50,[42],16.6 µM (inactive)
same,GI50,[43],18.7 µM (inactive)
same,GI50,[44],15 µM (inactive)
same,GI50,[45],16.3 µM (inactive)
same,GI50,[46],18.9 µM (inactive)
same,GI50,[47],> 100 µM (inactive)
same,GI50,[48],> 100 µM (inactive)
same,GI50,[50],20 µM
same,GI50,[51],17.5 µM (inactive)
same,GI50,[52],> 100 µM (inactive)
same,GI50,[53],14.2 µM (inactive)
same,GI50,[54],14.3 µM (inactive)
same,GI50,[55],18.6 µM (inactive)
